Data as given in patent publication US20240350525A1, “HEART DISEASE AGENT AND METHOD FOR IMPROVING HEART DISEASE” (MIRAILAB BIOSCIENCE INC., priority 2021, published 2024).

Test system: subject
Test: Electrocardiography before and after oral ingestion of NMN capsules in a subject with suspected ventricular extrasystole
Type: in vivo, human
Procedure: On Jun. 4, 2020, electrocardiography was performed on a subject by placing the subject in the supine position, putting clips on the extremities, attaching electrodes to the chest, and using an electrocardiograph (product name: Electrocardiograph ECG-2250, manufactured by NIHON KOHDEN CORPORATION) with leads I to III and leads aVR, aVL, and aVF. The paper feed speed of the electrocardiogram was set to 25 mm/second, and the vertical axis was set to 1 mV=10 mm for recording. The result is indicated in the electrocardiogram of FIG. 2 (horizontal axis: time (second), vertical axis: electric potential (mV)).
Afterwards, from Oct. 18, 2020, the subject was caused to ingest (take orally) one capsule per day of NMN pure 3000 plus (NMN 50 mg/capsule, manufactured by MIRAILAB BIOSCIENCE Inc., trade name) for 47 consecutive days.
Then, on Jan. 4, 2021, electrocardiography was performed again on the above-described subject similarly as described above. The result is indicated in the electrocardiogram of FIG. 3 (horizontal axis: time (second), vertical axis: electric potential (mV)). […] From this, it was confirmed that NMN ingestion was effective for electrocardiogram abnormalities and arrhythmias.

NC(=O)c1ccc[n+]([C@@H]2O[C@H](COP(=O)([O-])O)[C@@H](O)[C@H]2O)c1 [NMN, nicotinamide mononucleotide]
heart rate (after ingestion of one capsule per day (NMN 50 mg/capsule) for 47 consecutive days, 69 bpm before ingestion): 57 bpm
electrocardiogram waveforms (one subject, one capsule per day (NMN 50 mg/capsule) orally for 47 consecutive days, ECG on Jan. 4, 2021): appeared with regularity in order
QRS complexes having a wide and odd-shaped waveform (one subject, one capsule per day (NMN 50 mg/capsule) orally for 47 consecutive days, ECG on Jan. 4, 2021, complexes were recognized before ingestion): not recognized
effect on electrocardiogram abnormalities and arrhythmias (overall conclusion, one subject, NMN 50 mg/day orally for 47 consecutive days): effective
